# What was measured:
# Assay in all cases: relative viability (nuclei count vs DMSO), 5 days (fraction); higher = more cells survive
# MK-2206 + Palbociclib = compound: NC1(c2ccc(-c3nc4ccn5c(=O)[nH]nc5c4cc3-c3ccccc3)cc2)CCC1 [MK-2206] + CC(=O)c1c(C)c2cnc(Nc3ccc(N4CCNCC4)cn3)nc2n(C2CCCC2)c1=O [Palbociclib] (partner 0.5 µM)
# Method in brief: (§1)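 Medians of duplicate plates are given as relative viability. That measure is the nuclei count in treated wells divided by the count in vehicle wells. Counts were taken on 4× images of lung cancer cell lines in 1536-well plates, 5 days after pin-tool dosing the day after seeding with one drug alone or a fixed anchor-drug dose plus five library-drug doses (not always all listed) in √10 steps.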
# Pictilisib + Palbociclib = compound: CS(=O)(=O)N1CCN(Cc2cc3nc(-c4cccc5[nH]ncc45)nc(N4CCOCC4)c3s2)CC1 [Pictilisib] + CC(=O)c1c(C)c2cnc(Nc3ccc(N4CCNCC4)cn3)nc2n(C2CCCC2)c1=O [Palbociclib] (partner 0.5 µM)
# Method in brief: as §1
# MK-2206 = compound: NC1(c2ccc(-c3nc4ccn5c(=O)[nH]nc5c4cc3-c3ccccc3)cc2)CCC1 [MK-2206]
# Method in brief: (§2)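 After an overnight hold at 37 °C, lung cancer cell lines in 1536-well plates were pinned with five library-drug doses (not always all listed), each √10 from the next, on vehicle-anchored plates. The cells stayed 5 days without fresh medium, then a one-step fix, permeabilisation and Hoechst stain preceded 4× imaging and MetaXpress nuclear counts. A plate passed only with control CV under 25% and at least one doubling. Viability is the median, over plates, of treated-well nuclei relative to vehicle-well nuclei.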
# Pictilisib = compound: CS(=O)(=O)N1CCN(Cc2cc3nc(-c4cccc5[nH]ncc45)nc(N4CCOCC4)c3s2)CC1 [Pictilisib]
# Method in brief: as §2
cell line,measurement,setting,value
UMC-11,relative viability,MK-2206 + Palbociclib; first compound 0.01 µM,0.318
same,relative viability,MK-2206 + Palbociclib; first compound 0.03162 µM,0.359
same,relative viability,MK-2206 + Palbociclib; first compound 0.3162 µM,0.288
same,relative viability,MK-2206 + Palbociclib; first compound 1 µM,0.317
same,relative viability,Pictilisib + Palbociclib; first compound 0.02 µM,0.334
same,relative viability,Pictilisib + Palbociclib; first compound 0.06325 µM,0.318
same,relative viability,Pictilisib + Palbociclib; first compound 0.6325 µM,0.427
same,relative viability,Pictilisib + Palbociclib; first compound 2 µM,0.376
same,relative viability,MK-2206; 0.01 µM,0.94
same,relative viability,MK-2206; 0.03162 µM,1.02
same,relative viability,MK-2206; 0.3162 µM,1.07
same,relative viability,MK-2206; 1 µM,0.937
same,relative viability,Pictilisib; 0.02 µM,0.989
same,relative viability,Pictilisib; 0.06325 µM,1.14
same,relative viability,Pictilisib; 0.6325 µM,1.07
same,relative viability,"Pictilisib; 1 µM, anchor plate",0.846
same,relative viability,Pictilisib; 2 µM,0.937

# From the supplement of paper PMC10307832
